Data reported in ChEMBL document CHEMBL1143983, “A photoswitchable ITAM peptidomimetic: synthesis and real time surface plasmon resonance (SPR) analysis of the effects of cis-trans isomerization on binding” (Bioorg Med Chem, 2008).

Biological target: Tyrosine-protein kinase SYK (Homo sapiens, UniProt P43405)
Assay: Binding affinity to Syk tSH2 domain by SPR binding assay

Kd: 65 nM
SMILES: CC(=O)N[C@@H](Cc1ccc(OP(=O)(O)O)cc1)C(=O)N[C@H](C(=O)NCC(=O)N[C@@H](CC(C)C)C(=O)NCC(=O)NCc1ccc(/N=N/c2ccc(C(=O)NCC(=O)N[C@@H](Cc3ccc(OP(=O)(O)O)cc3)C(=O)N[C@@H](CCC(=O)O)C(=O)N[C@H](C(=O)N[C@@H](CC(C)C)C(N)=O)[C@H](C)O)cc2)cc1)[C@H](C)O
